# Source: US11013694B2, “Formulation of a micro drop pill and the preparation method thereof” (TASLY PHARMACEUTICAL GROUP CO., LTD., priority 2013, dated 2021)
# Where a name gives a salt, the structure may show the parent alone.
# Experiments:
# [1] = system: acute myocardial infarction in rats; test: Acute myocardial infarction in rats by coronary artery (LAD) ligature: myocardial infarction rate (MIR); assay type: in vivo, SD male rats; conditions: intragastric pre-administration 7 d (Y 4.5, G 115, F 84 mg/kg)
# Text: (§1) SD male rats, weighing 340˜360 g, were purchased from Beijing Weitonglihua Experimental Animal Co., Ltd, and certification No.: SCXK (Jing) 2007-0001.
# (§2) Grouping: the rats were randomly divided into groups according to their body weight: S group (Sham operation group), M group (Model group), Y group (Positive control group, metoprolol tartrate, Lot No. 1201039), F group (CSMDP of the present invention) and G group (CSDP available in China, Lot No. 2011L16); 10 rats in each group.
# On the 8th day, the rats were anesthetized intraperitoneally with 10% chloral hydrate (3 ml/kg) and fixed on a small wood plate in a supine position. Pins were inserted under the skin of the right forelimb and both hind limbs, and then the rats were connected with the MedLab-U/8c bio-signals collecting-processing system to record ECG of the rats. Hair on the front wall of the left chest was clipped. Oral tracheal cannula was performed and the animal respirator was connected at a respiratory frequency of 80 breaths/min, tidal volume 3 ml/100 g and I:E=1:1. Chest on the left front chest lateral side was incised to cut the 3′ rib and the pericardium was carefully lifted with forceps to tear apart. […] ECG was recorded continuously for 4 hours. […]
# [2] = system: heart rate in rats with myocardial infarction; test: Heart rate (ECG) in rats with myocardial infarction after ligation; assay type: in vivo, SD male rats; conditions: 7 d pre-administration
# Text: as §1, §2
# On the 8th day, the rats were anesthetized intraperitoneally with 10% chloral hydrate (3 ml/kg) and fixed on a small wood plate in a supine position. Pins were inserted under the skin of the right forelimb and both hind limbs, and then the rats were connected with the MedLab-U/8c bio-signals collecting-processing system to record ECG of the rats. Hair on the front wall of the left chest was clipped. Oral tracheal cannula was performed and the animal respirator was connected at a respiratory frequency of 80 breaths/min, tidal volume 3 ml/100 g and I:E=1:1. Chest on the left front chest lateral side was incised to cut the 3′ rib and the pericardium was carefully lifted with forceps to tear apart. […] Medical suture (4-0) was used to transfix LAD and a small amount of myocardial tissue at a distance of about 1˜2 mm from the lower edge of the left atrial appendage and inside interventricular sulcus in the vicinity of the left main trunk of coronary vein. The rats with an elevated J point by 0.1 mV in ECG and pale LVAW (left ventricular anterior wall) indicated a successful modeling. Chest was closed layer by layer. The tracheal tube was removed until the voluntary respiration was recovered in the rats. ECG was recorded continuously for 4 hours.
smiles,measurement,setting,value
"COCCc1ccc(OCC(O)CNC(C)C)cc1 (stereo not drawn) [Y group, metoprolol tartrate]",Average wet weight of the infarction region,"[1]; LAD ligation on 8th day, heart taken after 4 h ECG",0.0233 ± 0.0038 g
same,MIR (myocardial infarction rate = wet weight of the infarction region/wet weight of the whole heart x 100%),"[1]; LAD ligation, model group 5.07 ± 0.75",2.65 ± 0.33 %
same,heart rate,[2]; 0 s after ligation,377 ± 48 beat/min
same,heart rate,[2]; 5 s after ligation,423 ± 39 beat/min
same,heart rate,[2]; 10 s after ligation,419 ± 41 beat/min
same,heart rate,[2]; 5 min after ligation,424 ± 29 beat/min
same,heart rate,[2]; 10 min after ligation,431 ± 17 beat/min
same,heart rate,[2]; 30 min after ligation,413 ± 34 beat/min
same,heart rate,[2]; 1 h after ligation,421 ± 47 beat/min
same,heart rate,[2]; 2 h after ligation,416 ± 33 beat/min
same,heart rate,[2]; 3 h after ligation,380 ± 66 beat/min
same,heart rate,[2]; 4 h after ligation,395 ± 52 beat/min
